Key:
[1] = target: T1, Retinoic acid receptor beta (Homo sapiens) (UniProt P10826); assay: Relative transcriptional activation in CV-1 cells expressing RAR beta receptor compared to ATRA; type: functional, cell-based; conditions: Cercopithecidae
T1 sequence (whole entry): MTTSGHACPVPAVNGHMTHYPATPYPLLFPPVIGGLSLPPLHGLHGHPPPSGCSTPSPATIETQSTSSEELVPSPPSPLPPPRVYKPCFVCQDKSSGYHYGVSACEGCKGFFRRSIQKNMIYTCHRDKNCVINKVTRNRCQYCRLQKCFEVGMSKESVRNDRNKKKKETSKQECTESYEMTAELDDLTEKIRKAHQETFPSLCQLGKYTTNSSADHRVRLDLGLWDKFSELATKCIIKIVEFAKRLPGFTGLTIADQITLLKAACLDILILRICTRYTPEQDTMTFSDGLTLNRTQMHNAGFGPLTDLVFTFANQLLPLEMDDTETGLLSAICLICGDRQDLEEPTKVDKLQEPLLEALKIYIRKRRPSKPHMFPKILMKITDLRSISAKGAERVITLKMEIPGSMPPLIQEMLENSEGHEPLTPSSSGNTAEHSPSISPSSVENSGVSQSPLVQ

[2] = target: T1, Retinoic acid receptor beta (Homo sapiens); assay: Binding affinity for Retinoic acid receptor beta relative to ATRA
[3] = target: T2, Retinoic acid receptor alpha (Homo sapiens) (UniProt P10276); assay: Binding affinity for Retinoic acid receptor alpha relative to ATRA
T2 sequence (whole entry): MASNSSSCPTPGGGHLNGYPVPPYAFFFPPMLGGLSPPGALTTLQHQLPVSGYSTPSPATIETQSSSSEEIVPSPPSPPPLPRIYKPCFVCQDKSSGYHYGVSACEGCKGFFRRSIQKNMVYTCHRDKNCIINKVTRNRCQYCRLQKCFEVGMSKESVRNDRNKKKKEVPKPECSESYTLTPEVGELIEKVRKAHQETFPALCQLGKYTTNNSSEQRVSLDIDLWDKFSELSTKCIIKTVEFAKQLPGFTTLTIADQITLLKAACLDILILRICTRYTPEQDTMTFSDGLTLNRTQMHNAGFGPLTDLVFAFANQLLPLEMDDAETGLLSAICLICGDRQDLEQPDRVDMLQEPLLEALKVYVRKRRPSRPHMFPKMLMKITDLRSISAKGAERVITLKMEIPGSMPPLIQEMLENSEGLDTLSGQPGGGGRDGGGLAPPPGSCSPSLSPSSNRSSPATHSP

[4] = target: T3, Retinoic acid receptor gamma (Homo sapiens) (UniProt P13631); assay: Relative transcriptional activation in CV-1 cells expressing RAR gamma receptor compared to ATRA; type: functional, cell-based; conditions: Cercopithecidae
T3 sequence (whole entry): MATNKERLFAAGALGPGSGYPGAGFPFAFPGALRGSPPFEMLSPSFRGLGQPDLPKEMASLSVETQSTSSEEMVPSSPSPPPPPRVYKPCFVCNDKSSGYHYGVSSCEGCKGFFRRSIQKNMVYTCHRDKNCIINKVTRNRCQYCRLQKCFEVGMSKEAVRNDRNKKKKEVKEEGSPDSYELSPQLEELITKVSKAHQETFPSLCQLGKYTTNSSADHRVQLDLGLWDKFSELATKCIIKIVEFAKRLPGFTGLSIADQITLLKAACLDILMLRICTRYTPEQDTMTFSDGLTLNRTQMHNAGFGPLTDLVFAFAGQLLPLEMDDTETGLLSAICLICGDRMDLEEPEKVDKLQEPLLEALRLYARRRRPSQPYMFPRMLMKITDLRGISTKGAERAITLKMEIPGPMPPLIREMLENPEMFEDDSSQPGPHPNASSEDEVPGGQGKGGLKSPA

[5] = target: T2, Retinoic acid receptor alpha (Homo sapiens); assay: Relative transcriptional activation in CV-1 cells expressing RAR alpha receptor compared to ATRA; type: functional, cell-based; conditions: Cercopithecidae
[6] = target: T3, Retinoic acid receptor gamma (Homo sapiens); assay: Binding affinity for Retinoic acid receptor gamma relative to ATRA
[7] = system: HL-60; assay: Induction of HL-60 cell differentiation; type: functional; conditions: Homo sapiens
[8] = target: T3, Retinoic acid receptor gamma (Homo sapiens); assay: Relative transcriptional activation in CV-1 cells expressing RAR gamma receptor compared to ATRA; Not detectable; type: functional, cell-based; conditions: Cercopithecidae
[9] = target: T1, Retinoic acid receptor beta (Homo sapiens); assay: Relative transcriptional activation in CV-1 cells expressing RAR beta receptor compared to ATRA; Not detectable; type: functional, cell-based; conditions: Cercopithecidae
[10] = target: T2, Retinoic acid receptor alpha (Homo sapiens); assay: Binding affinity for Retinoic acid receptor alpha relative to ATRA; Not detectable
[11] = target: T2, Retinoic acid receptor alpha (Homo sapiens); assay: Relative transcriptional activation in CV-1 cells expressing RAR alpha receptor compared to ATRA; Not detectable; type: functional, cell-based; conditions: Cercopithecidae
[12] = target: T2, Retinoic acid receptor alpha (Homo sapiens); conditions: Cercopithecidae; CV-1
Description: Transcriptional activation in CV-1 cells expressing RAR alpha receptor

[13] = target: T1, Retinoic acid receptor beta (Homo sapiens); conditions: Cercopithecidae; CV-1
Description: Transcriptional activation in CV-1 cells expressing RAR beta receptor

Compound	Relative EC30 [1] [nM]	Relative IC50 [2] [nM]	Relative IC50 [3] [nM]	Relative EC30 [4] [nM]	Relative EC30 [5] [nM]	Relative IC50 [6] [nM]	Relative EC30 [8] [nM]	Relative EC30 [9] [nM]	Relative IC50 [10] [nM]	Relative EC30 [11] [nM]	EC30 [12] [nM]	EC30 [13] [nM]	EC30 [7] [nM]
CC(/C=C/C=C(\C)c1ccc2c(C)ccc(C)c2c1)=C\C(=O)O	11	49	2.7	660	20	227	–	–	–	–	–	–	–
Cc1cccc2c1C=C(c1ccc(-c3ccc(C(=O)O)cc3)[nH]1)CO2	1030	> 1000	50	5250	4.5	> 1000	–	–	–	–	–	–	–
O=C(O)c1ccc(-c2ccc(-c3ccc4cccc(-c5ccccc5)c4c3)[nH]2)cc1	880	> 1000	1.4	–	> 10000	> 1000	> 10000	–	–	–	–	–	–
CC1=C(/C=C/C(C)=C/C=C/C(C)=C/C(=O)O)C(C)(C)CCC1	–	–	–	–	–	–	–	–	–	–	1.1	0.69	–
CC(/C=C/C=C(\C)c1ccc2c(c1)C(C)(C)CCC2(C)C)=C\C(=O)O	0.2	0.34	0.49	0.24	0.27	0.67	–	–	–	–	–	–	–

Second part, led by results:

Relative EC30 [1] [nM]	Relative IC50 [2] [nM]	Relative IC50 [3] [nM]	Relative EC30 [4] [nM]	Relative EC30 [5] [nM]	Relative IC50 [6] [nM]	Relative EC30 [8] [nM]	Relative EC30 [9] [nM]	Relative IC50 [10] [nM]	Relative EC30 [11] [nM]	EC30 [12] [nM]	EC30 [13] [nM]	Compound	EC30 [7] [nM]
78	> 1000	< 1	88	1.1	910	–	–	–	–	–	–	CC(C)c1cccc2ccc(-c3ccc(-c4ccc(C(=O)O)cc4)[nH]3)cc12	100
–	> 1000	15	–	49	> 1000	> 10000	> 10000	–	–	–	–	Cc1cccc2ccc(-c3ccc(-c4ccc(C(=O)O)cc4)[nH]3)cc12	–
250	> 1000	24	2200	2.8	> 1000	–	–	–	–	–	–	Cc1ccc(C)c2cc(-c3ccc(-c4ccc(C(=O)O)cc4)[nH]3)ccc12	–
240	> 1000	9.7	3600	1.8	> 1000	–	–	–	–	–	–	Cc1ccc(C)c2c1C=C(c1ccc(-c3ccc(C(=O)O)cc3)[nH]1)CO2	–
–	> 1000	–	–	–	> 1000	> 10000	> 10000	> 1000	> 10000	–	–	Cc1c(C)c(C)c2cc(-c3ccc(-c4ccc(C(=O)O)cc4)[nH]3)ccc2c1C	–
–	> 1000	–	–	90	> 1000	> 10000	> 10000	> 1000	–	–	–	Cc1cc(C)c2ccc(-c3ccc(-c4ccc(C(=O)O)cc4)[nH]3)cc2c1	–

Source: ChEMBL document CHEMBL1133435, “Syntheses and evaluation of naphthalenyl- and chromenyl-pyrrolyl-benzoic acids as potent and selective retinoic acid receptor alpha agonists” (Bioorg Med Chem Lett, 2000)
